# Assay results from US20250367229A1, “Treatment of Immune-Related Disorders, Kidney Disorders, Liver Disorders, Hemolytic Disorders, and Oxidative Stress-Associated Disorders Using NRH, NARH and Reduced Derivatives Thereof” (MitoPower LLC, priority 2021, published 2025).
# How the values were obtained:
# [1] = tested on: RBC hemoglobin; test: H2O2-induced oxidative changes of RBC hemoglobin in vitro (spectral scans); assay type: cell-based, human
# Experimental: A 4 M stock solution of sodium azide was prepared. One mL of the 4 M stock azide solution was diluted with 9 mL of phosphate-buffered saline (PBS, pH 7.4) to obtain a 0.4 M stock solution, which was further diluted with PBS to obtain a 0.01 M working solution of sodium azide. Eight mL of whole blood was collected in buffered acid citrate dextrose tubes from a healthy human donor. PBS was added to 500 μL of whole blood. The samples were centrifuged, and then the supernatant from each tube was discarded to obtain a red blood cell (RBC) pellet. Ten μL of 0.01 M sodium azide working solution was added to 20 μL of RBC suspension. Twenty μL of hydrogen peroxide (H2O2) diluted in PBS was added to the RBC suspension to obtain final concentrations of H2O2 ranging from 0.01 mM to 100 mM. The samples were incubated at 37° C. for 1.5 hr. 950 μL of de-ionized water was added to the samples, which were then incubated for 10 min to lyse the RBCs and obtain hemoglobin upon centrifugation at 1,500 g. Spectral scans of the lysed samples between 200 nm and 1100 nm were obtained in 2 nm increments, using a Systronics® dual-beam UV-spectrophotometer and de-ionized water as a blank. Samples incubated with PBS at 37° C. for 1-1.5 hr were used as controls to establish the oxidative effects of H2O2 on RBC hemoglobin. Absorbance at 576 nm is a measure of hemoglobin concentration in a sample, and oxidation of hemoglobin to methemoglobin results in a drop in absorbance at 576 nm and an increase in absorbance at 630 nm. Fantao et al., Anal. Biochem., 521:11-19, (2017). Stock solutions of NRH (29.6 mM) and NR (18.3 mM) were prepared in 0.9% normal saline. Appropriate quantities of the stock NRH or NR solution and PBS were added to 500 μL of whole blood to obtain final concentrations of NRH or NR ranging from 1 μM to 1000 μM. The whole blood samples with NRH or NR were mixed gently and incubated at 37° C. for 1-1.5 hr. The samples were centrifuged, and then the supernatant was discarded to obtain an RBC pellet for each sample.
# [2] = tested on: CD8^+ T cells; test: Mitochondrial membrane depolarization (JC-1, flow cytometry) in CD8+ T cells; assay type: cell-based, human; settings: 250 μM, 24 hr, unstimulated or stimulated with anti-CD3 and anti-CD28 antibodies
# Experimental: PBMCs (10^6 cells per test group) obtained from healthy human adult donors were unstimulated or stimulated with anti-CD3 and anti-CD28 antibodies to induce T-cell activation, in the absence or presence of 250 μM of NRH or NRH-triacetate (NRHTA). Measurements were made at 5, 15 and 24 hr after treatment.
# After the indicated time of incubation, the PBMCs were stained with anti-CD3, anti-CD4 and anti-CD8 antibodies (Biolegend), JC-1 (1 μM, Thermo Fisher) and annexin V (Thermo Fisher) prior to analysis by flow cytometry. Annexin V binds to cell-surface phosphatidylserine, which is a marker for different forms of cell death including apoptosis and necrosis. The stained cells were re-suspended in phosphate-buffered saline (PBS) and acquired in a Cytek Aurora flow cytometer using a FlowJo software (v10) for analysis. About 200,000-300,000 cells were acquired in the flow cytometer for analysis. Standard procedures for spectral compensation were performed to obtain cell populations. Lymphocytes identified by forward and side scatter were gated to obtain CD3^+/CD4^+ and CD3^+/CD8^+ T-cell populations. Those T-cell populations were gated to identify the red and green signals for JC-1 aggregate and monomer, respectively, and annexin V. The percentage of cells staining green by JC-1 monomer was used to determine the percentage of cells with depolarized mitochondria. […]
# [3] = Distribution of intraperitoneally injected NRH to whole blood, kidney and liver (LCMS/MS); assay type: in vivo, Wistar Han rat; settings: single intraperitoneal injection, 500 mg/kg, after 4 hr
# Experimental: Freshly weighed NRH (100 mg) was dissolved in 500 μL sterile IP water. The NRH solution was intraperitoneally injected into a healthy, male Wistar Han rat (200 g) at a single dose of 500 mg/kg. 500 μL of sterile IP water was intraperitoneally injected into another healthy, male Wistar Han rat (200 g) as a control.
# The animals were euthanized by cervical dislocation under anesthesia after 4 hr. Whole blood was collected in K2EDTA vacutainer tubes by cardiac puncture using a 2 mL syringe. The liver and kidney were harvested subsequently by dissection. The tissues were placed in a petridish, rinsed with ice-cold saline, and then weighed. 72 mg of liver of the treated animal and 74.3 mg of liver of the untreated animal were homogenized, and 71.6 mg of kidney of the treated animal and 70.7 mg of kidney of the untreated animal were homogenized. Homogenization of the tissues was carried out separately in 3 mL of ice-cold methanol (about 20 mg/mL of tissue in methanol). The homogenate was snap-frozen in liquid nitrogen and maintained at −80° C. for analysis. The blood samples were maintained at 2-8° C. for analysis.
# 250 μL of whole blood from the K2EDTA tubes was added to a tube containing 50 μL of 500 ng/ml of tolbutamide as the internal standard. 600 μL of ice-cold HPLC-grade methanol was added to this mixture for extraction of nicotinamide adenine dinucleotide (NAD^+) and NRH. The resulting mixture was mixed well and centrifuged at 12500 rpm for 10 min. The supernatant was measured for NAD^+ and NRH by LCMS/MS. For the liver and kidney tissues, 250 μL of the tissue homogenate was processed in the same manner.
smiles,measurement,setting,value
"NC(=O)C1=CN([C@@H]2O[C@H](CO)[C@@H](O)[C@H]2O)C=CC1 [NRH, N-(β-D-ribofuranosyl)dihydronicotinamide]",A576/A630 ratio (a measure of the hemoglobin/methemoglobin ratio),"[1]; RBCs exposed to 1 mM H2O2, 1 μM or 100 μM NRH, NR data not shown",restored
same,"protection of hemoglobin from 1 mM H2O2-induced oxidative changes (amplitude of absorbance peaks at 576, 540, 434, 348 and 270 nm)","[1]; pre-incubation of RBCs with 1, 10 and 100 µM",protected hemoglobin
same,mitochondrial membrane depolarization in CD8+ T cells,[2],significantly induced
same,concentration of NRH in the kidney (area ratio NRH/IS) versus vehicle,[3],increased concentrations
same,concentration of NRH in the liver (area ratio NRH/IS) versus vehicle,[3],increased concentrations
same,concentration of NRH in whole blood (area ratio NRH/IS) versus vehicle,[3],increased concentrations
